# US20090176817A1, “Method of Treatment of Diarrhea-Predominant Irritable Bowel Syndrome in a Subject” (priority 2005, published 2009)
# System: diarrhea-predominant IBS subjects
# Test: Study S241.3.009: weekly diary questions on adequate relief
# Format: in vivo, human
# Conditions: for Responder rate, adequate relief of abnormal bowel habits / Responder rate, adequate relief of IBS symptoms / Responder rate, adequate relief of abdominal pain/discomfort: monthly LOCF imputation; for Responder rate, adequate relief of abnormal bowel habits / Overall responder rate, adequate relief of IBS symptoms / Overall responder rate, adequate relief of abdominal pain/discomfort / Overall responder rate, adequate relief of abnormal bowel habits / Number of months a subject was a responder: One month (Abdominal pain/discomfort) / Number of months a subject was a responder: One month (Abnormal bowel habits) / Number of months a subject was a responder: One month (IBS symptoms) / Number of months a subject was a responder: Three months (Abdominal pain/discomfort) / Number of months a subject was a responder: Three months (Abnormal bowel habits) / Number of months a subject was a responder: Three months (IBS symptoms) / Number of months a subject was a responder: Two months (Abdominal pain/discomfort) / Number of months a subject was a responder: Two months (Abnormal bowel habits) / Number of months a subject was a responder: Two months (IBS symptoms) / Number of months a subject was a responder: Zero months (Abdominal pain/discomfort) / Number of months a subject was a responder: Zero months (Abnormal bowel habits) / Number of months a subject was a responder: Zero months (IBS symptoms) / Responder rate, adequate relief of IBS symptoms / Responder rate, adequate relief of abdominal pain/discomfort: ITT, 2 mg TID; for Overall responder rate, adequate relief of IBS symptoms / Overall responder rate, adequate relief of abdominal pain/discomfort / Overall responder rate, adequate relief of abnormal bowel habits: 26-week treatment period, observed case; for Number of months a subject was a responder: One month (Abdominal pain/discomfort) / Number of months a subject was a responder: One month (Abnormal bowel habits) / Number of months a subject was a responder: One month (IBS symptoms) / Number of months a subject was a responder: Three months (Abdominal pain/discomfort) / Number of months a subject was a responder: Three months (Abnormal bowel habits) / Number of months a subject was a responder: Three months (IBS symptoms) / Number of months a subject was a responder: Two months (Abdominal pain/discomfort) / Number of months a subject was a responder: Two months (Abnormal bowel habits) / Number of months a subject was a responder: Two months (IBS symptoms) / Number of months a subject was a responder: Zero months (Abdominal pain/discomfort) / Number of months a subject was a responder: Zero months (Abnormal bowel habits) / Number of months a subject was a responder: Zero months (IBS symptoms): monthly LOCF
# Description: Study S241.3.009 was a Phase III, a double-blind, placebo-controlled, randomized, multinational study to investigate the safety and efficacy of 2 mg TID of cilansetron over 26 weeks in diarrhea-predominant IBS subjects. The study was conducted in 146 multinational study centers. A total of 1307 subjects consented to participate, and 806 subjects were randomized. A total of 792 subjects were analyzed for efficacy and 799 subjects were analyzed for safety. Diagnosis and main criteria for inclusion were IBS subjects satisfying the Rome I criteria (1992); the diarrhea-predominant sub-population of the Rome II criteria; and a minimum abdominal pain/discomfort, stool frequency and consistency determined during the run-in period. Subjects were treated with cilansetron 2 mg tablets given orally TID or matching placebo tablets given orally TID for 26 weeks.
# The primary efficacy parameter was the overall response rate for IBS symptoms, based on the weekly question concerning adequate relief of IBS symptoms (abdominal pain/discomfort, abnormal bowel habits) over the 26 weeks period. A responder was a subject who responded “yes” at least 50% of the time during his/her treatment period, with minimum treatment duration of four weeks. The two main secondary efficacy parameters were overall responder rate based on the weekly question on adequate relief of abdominal pain/discomfort and abnormal bowel habits during the 26-week treatment period. The onset of action of cilansetron was also examined using daily diary data (stool frequency, and ratings of urgency and severity) during the initial 8 weeks of trial participation. An additional key secondary efficacy parameter was the number of months (one month equals four weeks) up to six months (24-weeks) that a subject was a responder for IBS symptoms, where a responder was defined as a subject who answered the weekly question with “yes” at least twice for that month. The responder rate for the weekly diary questions on adequate relief at each month and all months, the adequate relief rate, the number of subjects with adequate relief by week, daily diary questions, IBS-QOL scores, and the interruption of activities were also assessed. Safety was evaluated by physical examination, ECG, vital signs, laboratory evaluations, concomitant medications, and AEs.
# Studies S24 1.3.OO6, S24 1.3.0 1 1, and S24 1.3.009 used the following efficacy measurements: • The subjects answered the following three questions with “yes” or “no” using a phone diary at the end of each week: • a) During the last week, did you experience adequate relief of your IBS symptoms, such as abdominal pain, abdominal discomfort, abnormal bowel habits? • b) During the last week, did you experience adequate relief of your abdominal pain and/or discomfort? • c) During the last week, did you experience adequate relief of your abnormal bowel habits? • The subjects rated the following symptoms using the phone diary at the end of each day: • abdominal pain/discomfort (five-point scale); • stool consistency (seven-point Bristol Stool Scale); • stool frequency (number of bowel movements each day); • urgency (five-point scale); • straining (yes or no); • feeling of incomplete defecation (yes or no); • bloating or feeling of abdominal distension (five-point scale). • In Studies S241 A006 and S241.3.009, subjects completed the IBS-QOL Survey at Baseline (Day 1) and at the end of treatment. In Study S24 1.3.0 1 1, subjects completed the IBS-QOL Survey at Baseline (Day 1), at the end of the three-month treatment period, and at the end of rerandomized treatment.
# In all three pivotal efficacy studies, the primary and main secondary efficacy parameters were based on the weekly diary questions on adequate relief and included the following: • 1. Number of months (one month equals four weeks) that a subject was a responder for the weekly diary questions on adequate relief. […]
smiles,measurement,setting,value
"Cc1nccn1C[C@H]1CCc2c(c3cccc4c3n2CCC4)C1=O [Cilansetron, (R)-(−)-4,5,6,8,9,10-hexahydro-10-[(2-methyl-1H-imidazol-1-yl)methyl]-11H-pyrido-[3,2,1-jk]-carbazol-11-one]","Responder rate, adequate relief of abnormal bowel habits",Each month of Months 4 to 6,204 (52) n (%)
same,"Overall responder rate, adequate relief of IBS symptoms",Female subjects,132 (63) n (%)
same,"Overall responder rate, adequate relief of abdominal pain/discomfort",Female subjects,133 (64) n (%)
same,"Overall responder rate, adequate relief of abnormal bowel habits",Female subjects,141 (67) n (%)
same,Number of months a subject was a responder: One month (Abdominal pain/discomfort),"Female subjects, Months 1 to 3",30 (14) n (%)
same,Number of months a subject was a responder: One month (Abnormal bowel habits),"Female subjects, Months 1 to 3",25 (12) n (%)
same,Number of months a subject was a responder: One month (IBS symptoms),"Female subjects, Months 1 to 3",28 (13) n (%)
same,Number of months a subject was a responder: Three months (Abdominal pain/discomfort),"Female subjects, Months 1 to 3",93 (44) n (%)
same,Number of months a subject was a responder: Three months (Abnormal bowel habits),"Female subjects, Months 1 to 3",91 (44) n (%)
same,Number of months a subject was a responder: Three months (IBS symptoms),"Female subjects, Months 1 to 3",82 (39) n (%)
same,Number of months a subject was a responder: Two months (Abdominal pain/discomfort),"Female subjects, Months 1 to 3",36 (17) n (%)
same,Number of months a subject was a responder: Two months (Abnormal bowel habits),"Female subjects, Months 1 to 3",49 (23) n (%)
same,Number of months a subject was a responder: Two months (IBS symptoms),"Female subjects, Months 1 to 3",47 (22) n (%)
same,Number of months a subject was a responder: Zero months (Abdominal pain/discomfort),"Female subjects, Months 1 to 3",50 (24) n (%)
same,Number of months a subject was a responder: Zero months (Abnormal bowel habits),"Female subjects, Months 1 to 3",44 (21) n (%)
same,Number of months a subject was a responder: Zero months (IBS symptoms),"Female subjects, Months 1 to 3",52 (25) n (%)
same,"Overall responder rate, adequate relief of IBS symptoms",Male subjects,102 (55) n (%)
same,"Overall responder rate, adequate relief of abdominal pain/discomfort",Male subjects,106 (57) n (%)
same,"Overall responder rate, adequate relief of abnormal bowel habits",Male subjects,112 (60) n (%)
same,Number of months a subject was a responder: One month (Abdominal pain/discomfort),"Male subjects, Months 1 to 3",31 (17) n (%)
same,Number of months a subject was a responder: One month (Abnormal bowel habits),"Male subjects, Months 1 to 3",24 (13) n (%)
same,Number of months a subject was a responder: One month (IBS symptoms),"Male subjects, Months 1 to 3",27 (15) n (%)
same,Number of months a subject was a responder: Three months (Abdominal pain/discomfort),"Male subjects, Months 1 to 3",66 (35) n (%)
same,Number of months a subject was a responder: Three months (Abnormal bowel habits),"Male subjects, Months 1 to 3",74 (40) n (%)
same,Number of months a subject was a responder: Three months (IBS symptoms),"Male subjects, Months 1 to 3",68 (37) n (%)
same,Number of months a subject was a responder: Two months (Abdominal pain/discomfort),"Male subjects, Months 1 to 3",34 (18) n (%)
same,Number of months a subject was a responder: Two months (Abnormal bowel habits),"Male subjects, Months 1 to 3",34 (18) n (%)
same,Number of months a subject was a responder: Two months (IBS symptoms),"Male subjects, Months 1 to 3",33 (18) n (%)
same,Number of months a subject was a responder: Zero months (Abdominal pain/discomfort),"Male subjects, Months 1 to 3",55 (30) n (%)
same,Number of months a subject was a responder: Zero months (Abnormal bowel habits),"Male subjects, Months 1 to 3",54 (29) n (%)
same,Number of months a subject was a responder: Zero months (IBS symptoms),"Male subjects, Months 1 to 3",58 (31) n (%)
same,"Responder rate, adequate relief of IBS symptoms",Month 1,193 (49) n (%)
same,"Responder rate, adequate relief of abdominal pain/discomfort",Month 1,199 (50) n (%)
same,"Responder rate, adequate relief of abnormal bowel habits",Month 1,214 (54) n (%)
same,"Responder rate, adequate relief of IBS symptoms",Month 2,233 (59) n (%)
same,"Responder rate, adequate relief of abdominal pain/discomfort",Month 2,237 (60) n (%)
same,"Responder rate, adequate relief of abnormal bowel habits",Month 2,245 (62) n (%)
same,"Responder rate, adequate relief of IBS symptoms",Month 3,239 (61) n (%)
same,"Responder rate, adequate relief of abdominal pain/discomfort",Month 3,242 (61) n (%)
same,"Responder rate, adequate relief of abnormal bowel habits",Month 3,251 (64) n (%)
same,"Responder rate, adequate relief of IBS symptoms",Month 4,237 (60) n (%)
same,"Responder rate, adequate relief of abdominal pain/discomfort",Month 4,241 (61) n (%)
same,"Responder rate, adequate relief of abnormal bowel habits",Month 4,245 (62) n (%)
same,"Responder rate, adequate relief of IBS symptoms",Month 5,237 (60) n (%)
same,"Responder rate, adequate relief of abdominal pain/discomfort",Month 5,242 (61) n (%)
same,"Responder rate, adequate relief of abnormal bowel habits",Month 5,247 (63) n (%)
same,"Responder rate, adequate relief of IBS symptoms",Month 6,233 (59) n (%)
same,"Responder rate, adequate relief of abdominal pain/discomfort",Month 6,237 (60) n (%)
same,"Responder rate, adequate relief of abnormal bowel habits",Month 6,243 (62) n (%)
same,"Median adequate relief rate, IBS symptoms",Months 1 to 3,0.58
same,"Median adequate relief rate, abdominal pain/discomfort",Months 1 to 3,0.58
same,"Median adequate relief rate, abnormal bowel habits",Months 1 to 3,0.67
same,"Overall responder rate, abdominal pain/discomfort",Months 1 to 3,56%
same,"Overall responder rate, abnormal bowel habits",Months 1 to 3,62%
same,"Overall responder rate, IBS symptoms","Months 1 to 3, observed case",55%
same,"Median adequate relief rate, IBS symptoms",Months 1 to 6,0.64
same,"Median adequate relief rate, abdominal pain/discomfort",Months 1 to 6,0.63
same,"Median adequate relief rate, abnormal bowel habits",Months 1 to 6,0.70
same,Overall responder rate difference vs placebo across diary questions,Romania,−29% to −8
same,"Overall responder rate difference vs placebo, each diary question",South Africa,−23%
